Columns and labels:
[1] = tested on: Puccinia recondita f. Sp. Tritici; test: Puccinia recondita f. sp. tritici / wheat / leaf disc curative (brown rust); format: in vivo; details: foliar, 200 ppm in the applied formulation, wheat leaf segments, curative (applied 1 day after inoculation), assessed 6 to 8 days after application, read-out: disease control compared to untreated control leaf disks
Experimental: (§1) Leaf disks or leaf segments of various plant species are cut from plants grown in a greenhouse. The cut leaf disks or segments are placed in multiwell plates (24-well format) onto water agar. The leaf disks are sprayed with a test solution before (preventative) or after (curative) inoculation. Compounds to be tested are prepared as DMSO solutions (max. 10 mg/mL) which are diluted to the appropriate concentration with 0.025% Tween20 just before spraying. The inoculated leaf disks or segments are incubated under defined conditions (temperature, relative humidity, light, etc.) according to the respective test system. A single evaluation of disease level is carried out 3 to 14 days after inoculation, depending on the pathosystem. Percent disease control relative to the untreated check leaf disks or segments is then calculated.
Example 2: Fungicidal Activity Against Puccinia recondita f. Sp. Tritici/Wheat/Leaf Disc Curative (Brown Rust)
Wheat leaf segments cv. Kanzler are placed on agar in multiwell plates (24-well format). The leaf segments are then inoculated with a spore suspension of the fungus. Plates were stored in darkness at 19° C. and 75% relative humidity. The formulated test compound diluted in water was applied 1 day after inoculation. The leaf segments were incubated at 19° C. and 75% relative humidity under a light regime of 12 hours light/12 hours darkness in a climate cabinet and the activity of a compound was assessed as percent disease control compared to untreated when an appropriate level of disease damage appears in untreated check leaf segments (6 to 8 days after application).
(§2) The following compounds at 200 ppm in the applied formulation give at least 80% disease control in this test when compared to untreated control leaf disks under the same conditions, which show extensive disease development.

[2] = tested on: Puccinia recondita f. Sp. Tritici; test: Puccinia recondita f. sp. tritici / wheat / leaf disc preventative (brown rust); format: in vivo; details: foliar, 200 ppm in the applied formulation, wheat leaf segments, preventative, assessed 7 to 9 days after application, read-out: disease control compared to untreated control leaf disks
Experimental: as §1
Example 1: Fungicidal Activity Against Puccinia recondita f. Sp. Tritici/Wheat/Leaf Disc Preventative (Brown Rust)
Wheat leaf segments cv. Kanzler were placed on agar in multiwell plates (24-well format) and sprayed with the formulated test compound diluted in water. The leaf disks were inoculated with a spore suspension of the fungus 1 day after application. The inoculated leaf segments were incubated at 19° C. and 75% relative humidity (rh) under a light regime of 12 hours light/12 hours darkness in a climate cabinet and the activity of a compound was assessed as percent disease control compared to untreated when an appropriate level of disease damage appears in untreated check leaf segments (7 to 9 days after application).
as §2

[3] = tested on: Glomerella lacenarium (Colletotrichum lacenarium); test: Glomerella lacenarium (Colletotrichum lacenarium) liquid culture / cucumber / preventative (anthracnose); format: cell-based; details: 20 ppm in the applied formulation, liquid culture in PDB, 24° C., 3 to 4 days after application, read-out: disease control (inhibition of growth, photometric) compared to untreated control
Experimental: Mycelia fragments or conidia suspensions of a fungus prepared either freshly from liquid cultures of the fungus or from cryogenic storage, are directly mixed into nutrient broth. DMSO solutions of the test compound (max. 10 mg/ml) are diluted with 0.025% Tween20 by a factor of 50 and 10 μL of this solution is pipetted into a microtiter plate (96-well format). The nutrient broth containing the fungal spores/mycelia fragments is then added to give an end concentration of the tested compound. The test plates are incubated in the dark at 24° C. and 96% relative humidity. The inhibition of fungal growth is determined photometrically after 2 to 7 days, depending on the pathosystem, and percent antifungal activity relative to the untreated check is calculated.
Example 4: Fungicidal Activity Against Glomerella lacenarium (Colletotrichum lacenarium) Liquid Culture/Cucumber/Preventative (Anthracnose)
Conidia of the fungus from cryogenic storage are directly mixed into nutrient broth (PDB—potato dextrose broth). After placing a (DMSO) solution of test compound into a microtiter plate (96-well format), the nutrient broth containing the fungal spores is added. The test plates are incubated at 24° C. and the inhibition of growth is measured photometrically 3 to 4 days after application.
The following compounds at 20 ppm in the applied formulation give at least 80% disease control in this test when compared to untreated control under the same conditions, which show extensive disease development.

CON(Cc1ccc(-c2noc(C(F)(F)F)n2)cc1)C(=O)C(=O)OC1COC1 [Compound 3.3, oxetan-3-yl 2-[methoxy-[[4-[5-(trifluoromethyl)-1,2,4-oxadiazol-3-yl]phenyl]methyl]amino]-2-oxo-acetate]
≥ 80%: pest or weed control at 200 ppm [1] | pest or weed control at 200 ppm [2] | inhibition at 20 ppm [3]

CCOC(=O)C(=O)N(Cc1ccc(-c2noc(C(F)(F)F)n2)cc1)OC [Compound 3.10, ethyl 2-[methoxy-[[4-[5-(trifluoromethyl)-1,2,4-oxadiazol-3-yl]phenyl]methyl]amino]-2-oxo-acetate]
≥ 80%: pest or weed control at 200 ppm [1] | pest or weed control at 200 ppm [2] | inhibition at 20 ppm [3]

COCCN(Cc1ccc(-c2noc(C(F)(F)F)n2)cc1)C(=O)C(N)=O [Compound 4.12, N′-(2-methoxyethyl)-N′-[[4-[5-(trifluoromethyl)-1,2,4-oxadiazol-3-yl]phenyl]methyl] oxamide]
≥ 80%: pest or weed control at 200 ppm [1] | pest or weed control at 200 ppm [2] | inhibition at 20 ppm [3]

CCC(C)N(Cc1ccc(-c2noc(C(F)(F)F)n2)cc1)C(=O)C(N)=O (stereo not drawn) [Compound 4.13, N′-sec-butyl-N′-[[4-[5-(trifluoromethyl)-1,2,4-oxadiazol-3-yl]phenyl]methyl] oxamide]
≥ 80%: pest or weed control at 200 ppm [1] | pest or weed control at 200 ppm [2] | inhibition at 20 ppm [3]

NC(=O)C(=O)N(Cc1ccc(-c2noc(C(F)(F)F)n2)cc1)CC1CCCO1 (stereo not drawn) [Compound 4.14, N′-(tetrahydrofuran-2-ylmethyl)-N′-[[4-[5-(trifluoromethyl)-1,2,4-oxadiazol-3-yl]phenyl]methyl] oxamide]
≥ 80%: pest or weed control at 200 ppm [1] | pest or weed control at 200 ppm [2] | inhibition at 20 ppm [3]

COC(CN(C)C(=O)C(=O)Nc1ccc(-c2noc(C(F)(F)F)n2)cc1)OC [Compound 4.21, N′-(2,2-dimethoxyethyl)-N'-methyl-N-[4-[5-(trifluoromethyl)-1,2,4-oxadiazol-3-yl]phenyl] oxamide]
≥ 80%: pest or weed control at 200 ppm [1] | pest or weed control at 200 ppm [2] | inhibition at 20 ppm [3]

CN(C)C(=O)C(=O)N(Cc1ccc(-c2noc(C(F)(F)F)n2)cc1)Cc1ccco1 [Compound 4.23, N′-(2-furylmethyl)-N,N-dimethyl-N′-[[4-[5-(trifluoromethyl)-1,2,4-oxadiazol-3-yl]phenyl]methyl] oxamide]
≥ 80%: pest or weed control at 200 ppm [1] | pest or weed control at 200 ppm [2] | inhibition at 20 ppm [3]

CCCONC(=O)C(=O)NCc1ccc(-c2noc(C(F)(F)F)n2)cc1 [Compound 4.42, N′-propoxy-N-[[4-[5-(trifluoromethyl)-1,2,4-oxadiazol-3-yl]phenyl]methyl] oxamide]
≥ 80%: pest or weed control at 200 ppm [1] | pest or weed control at 200 ppm [2] | inhibition at 20 ppm [3]

CC(C)NC(=O)C(=O)NCc1ccc(-c2noc(C(F)(F)F)n2)cc1 [Compound 4.46, N′-isopropyl-N-[[4-[5-(trifluoromethyl)-1,2,4-oxadiazol-3-yl]phenyl]methyl] oxamide]
≥ 80%: pest or weed control at 200 ppm [1] | pest or weed control at 200 ppm [2] | inhibition at 20 ppm [3]

CON(C)C(=O)C(=O)NCc1ccc(-c2noc(C(F)(F)F)n2)cc1 [Compound 4.48, N′-methoxy-N′-methyl-N-[[4-[5-(trifluoromethyl)-1,2,4-oxadiazol-3-yl]phenyl]methyl] oxamide]
≥ 80%: pest or weed control at 200 ppm [1] | pest or weed control at 200 ppm [2] | inhibition at 20 ppm [3]

CCC(C)NC(=O)C(=O)N(Cc1ccc(-c2noc(C(F)(F)F)n2)cc1)OC (stereo not drawn) [Compound 4.61, N′-methoxy-N-sec-butyl-N′-[[4-[5-(trifluoromethyl)-1,2,4-oxadiazol-3-yl]phenyl]methyl] oxamide]
≥ 80%: pest or weed control at 200 ppm [1] | pest or weed control at 200 ppm [2] | inhibition at 20 ppm [3]

CON(Cc1ccc(-c2noc(C(F)(F)F)n2)cc1)C(=O)C(=O)NCC(C)(C)C [Compound 4.62, N-(2,2-dimethylpropyl)-N′-methoxy-N′-[[4-[5-(trifluoromethyl)-1,2,4-oxadiazol-3-yl]phenyl]methyl] oxamide]
≥ 80%: pest or weed control at 200 ppm [1] | pest or weed control at 200 ppm [2] | inhibition at 20 ppm [3]

CON(Cc1ccc(-c2noc(C(F)(F)F)n2)cc1)C(=O)C(=O)NC(C)C [Compound 4.64, N-isopropyl-N′-methoxy-N′-[[4-[5-(trifluoromethyl)-1,2,4-oxadiazol-3-yl]phenyl]methyl] oxamide]
≥ 80%: pest or weed control at 200 ppm [1] | pest or weed control at 200 ppm [2] | inhibition at 20 ppm [3]

CCNC(=O)C(=O)N(Cc1ccc(-c2noc(C(F)(F)F)n2)cc1)OC [Compound 4.66, N-ethyl-N′-methoxy-N′-[[4-[5-(trifluoromethyl)-1,2,4-oxadiazol-3-yl]phenyl]methyl] oxamide]
≥ 80%: pest or weed control at 200 ppm [1] | pest or weed control at 200 ppm [2] | inhibition at 20 ppm [3]

CON(Cc1ccc(-c2noc(C(F)(F)F)n2)cc1)C(=O)C(=O)NCC(C)C [Compound 4.67, N-isobutyl-N′-methoxy-N′-[[4-[5-(trifluoromethyl)-1,2,4-oxadiazol-3-yl]phenyl]methyl] oxamide]
≥ 80%: pest or weed control at 200 ppm [1] | pest or weed control at 200 ppm [2] | inhibition at 20 ppm [3]

CON(Cc1ccc(-c2noc(C(F)(F)F)n2)cc1)C(=O)C(=O)NC1CC1 [Compound 4.68, N-cyclopropyl-N′-methoxy-N′-[[4-[5-(trifluoromethyl)-1,2,4-oxadiazol-3-yl]phenyl]methyl] oxamide]
≥ 80%: pest or weed control at 200 ppm [1] | pest or weed control at 200 ppm [2] | inhibition at 20 ppm [3]

CON(Cc1ccc(-c2noc(C(F)(F)F)n2)cc1)C(=O)C(=O)NC1CCC1 [Compound 4.72, N-cyclobutyl-N′-methoxy-N′-[[4-[5-(trifluoromethyl)-1,2,4-oxadiazol-3-yl]phenyl]methyl] oxamide]
≥ 80%: pest or weed control at 200 ppm [1] | pest or weed control at 200 ppm [2] | inhibition at 20 ppm [3]

CCONC(=O)C(=O)N(Cc1ccc(-c2noc(C(F)(F)F)n2)cc1)OC [Compound 4.74, N-ethoxy-N′-methoxy-N′-[[4-[5-(trifluoromethyl)-1,2,4-oxadiazol-3-yl]phenyl]methyl] oxamide]
≥ 80%: pest or weed control at 200 ppm [1] | pest or weed control at 200 ppm [2] | inhibition at 20 ppm [3]

CON(Cc1ccc(-c2noc(C(F)(F)F)n2)cc1)C(=O)C(=O)NC(C)(C)C [Compound 4.75, N-tert-butyl-N′-methoxy-N′-[[4-[5-(trifluoromethyl)-1,2,4-oxadiazol-3-yl]phenyl]methyl] oxamide]
≥ 80%: pest or weed control at 200 ppm [1] | pest or weed control at 200 ppm [2] | inhibition at 20 ppm [3]
